In PMC8318231, “Rate-of-Kill (RoK) assays to triage large compound sets for Chagas disease drug discovery: Application to GSK Chagas Box” (PLoS Neglected Tropical Diseases, 2021):

Experiments:
[1] = tested on: T. cruzi Tulahuen trypomastigotes; assay: T. cruzi trypomastigote assay (Cell Titer-Glo viability, ATP luminescence); format: cell-based, Trypanosoma cruzi; settings: for Trypomastigotes pIC50 48 hours: 48 hours incubation; for Trypomastigotes pIC50 48 hours / Trypomastigotes pIC50 72 hours: pIC50 = -log10 IC50 in molar units; for Trypomastigotes pIC50 72 hours: 72 hours incubation; for 72 pIC50 (trypomastigotes, raw data of Fig 1D): 72 hours, plotted values, censored values given without sign; for 48 pIC50 / 72 pIC50: trypomastigote assay; for 48 pIC50: 48 h; for 72 pIC50: 72 h
How it was run: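 Compounds were tested in dose response or once at a final 5 μM against 5 × 10^4 trypomastigotes per well (DMEM, 2% FBS), collected on days 5–8 from LLC-MK2 infected cultures. ATP luminescence via CellTiter-Glo reports live parasites; DMSO defines 0% and cell-free wells 100% effect.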

[2] = tested on: T. cruzi intracellular amastigotes in H9c2 cells; assay: Rate-of-Kill (RoK) high-content imaging assay, amastigotes per cell (AM/CELL) and curve descriptors; format: cell-based, Trypanosoma cruzi; parameters: key to ME_24h / ME_48h / ME_72h: % reduction in parasite burden (cidal response); t50pct_MCC50 / t50pct_Cmax: unit not given here; settings: for ME_24h: 24h; for ME_48h: 48h; for ME_72h: 72h; for AM/CELL NORM: sheet figure 4 A; for tlag_Cmax / t50pct_Cmax / t50%_Cmax: at Cmax; for ME_24h (%): maximum effect at 24 h; for ME_24h (%) / ME_48h (%) / ME_72h (%): RoK assay; for ME_48h (%): maximum effect at 48 h; for ME_72h (%): maximum effect at 72 h; for ME 24h (maximum effect at 24 hours, intracellular amastigotes): maximum percentage of parasite burden reduction reached by any concentration
How it was run: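 Readouts at each time point are amastigotes per cell and host nuclei count (cytotoxicity), from DRAQ5 high-content imaging. Infection: trypomastigotes on H9c2 at MOI 8 for 18 h. Dosing was 5 μM single point or 11 points, 1/3 steps from 50 μM. Effect scaled between 4 h infected and uninfected controls.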

[3] = tested on: TcCYP51; settings: formerly reported; cited from earlier work

SMILES | Trypomastigotes pIC50 48 hours [1] | Trypomastigotes pIC50 72 hours [1] | ME_24h ([2]; figure 5) | ME_48h ([2]; figure 5) | ME_72h ([2]; figure 5) | MCCE ([2]; RoK curve descriptor) | AM/CELL NORM ([2]; Time 4) | AM/CELL NORM ([2]; Time 24) | AM/CELL NORM ([2]; Time 48) | AM/CELL NORM ([2]; Time 72) | tlag_Cmax [2] | t50pct_Cmax ([2]; figure 5) | tlag_Cmax ([2]; figure 5) | t50pct_MCC50 ([2]; at MCC50, figure 5) | tlag_MCC50 ([2]; at MCC50, figure 5) | MCCE ([2]; figure 5) | ME_24h (%) [2] | ME_48h (%) [2] | ME_72h (%) [2] | ME 24h (maximum effect at 24 hours, intracellular amastigotes) [2] | further results
CN(C(=O)Nc1ccc2c(c1)CCN(C1CCC1)CC2)c1ccc(C#N)cc1.Cl [TCMDC-143526] | < 4.3 | < 4.3 | -107.476 | -30.6533 | 30.9234 | 1.9 µM | 4.08 | -107.476 | -30.6533 | 30.9234 | 24.0 h | 72 | 24 | 72 | 72 | 1.852 | -107.5% | -30.7% | 30.9% | -107.476% | 72 pIC50 (trypomastigotes, raw data of Fig 1D) [1]: < 4.3; 48 pIC50 ([1]; figure 1A): < 4.3; 72 pIC50 ([1]; figure 1A): < 4.3; 72 pIC50 ([1]; figure 1B): < 4.3; MCC50 ([2]; figure 5): 50 µM; CYP51 pIC50 [3]: < 4
Cc1[nH]c2ccccc2c(=O)c1Cc1c(C)[nH]c2ccccc2c1=O [TCMDC-143490] | 5.7 | 4.8 | 37.5404 | 50.8304 | 51.8782 | 0.01 µM | 13.7757 | 37.5404 | 50.8304 | 51.8782 | 4.0 h | 48 | 4 | 48 | 4 | 0.007621 | 37.5% | 50.8% | 51.9% | 37.5404% | MCC50 ([2]; RoK curve descriptor): 50.0 µM; t50%_Cmax [2]: 48.0 h; t50%_MCC50 ([2]; at MCC50): 48.0 h; tlag_MCC50 ([2]; at MCC50): 4.0 h; MCC50 ([2]; figure 5): 50 µM; CYP51 pIC50 [3]: < 4
CCn1nccc1CN(C)C(=O)C=Cc1ccc(Cl)cc1 [TCMDC-143325] | < 4.3 | < 4.3 | -25.9716 | -135.889 | 23.6762 | 0.6 µM | 13.1334 | -25.9716 | -135.889 | 23.6762 | 48.0 h | 72 | 48 | 72 | 72 | 0.6173 | -26.0% | -135.9% | 23.7% | -25.9716% | 72 pIC50 (trypomastigotes, raw data of Fig 1D) [1]: < 4.3; 48 pIC50 ([1]; figure 1A): < 4.3; 72 pIC50 ([1]; figure 1A): < 4.3; 72 pIC50 ([1]; figure 1B): < 4.3; MCC50 ([2]; figure 5): 50 µM; CYP51 pIC50 [3]: 6.5
CCCN(Cc1ccc(OC)c(OC)c1)Cc1cc(=O)c2c(C)cc(C)cc2[nH]1 [TCMDC-143331] | 5.4 | 5.6 | 53.5839 | 70.4309 | 85.455 | 1.9 µM | 14.9494 | 52.9561 | 75.3164 | 72.8804 | 4.0 h | 24 | 4 | 48 | 4 | 1.852 | 53.6% | 70.4% | 85.5% | 54.2116% | activity in trypomastigotes assay (in words) ([1]; 48 and 72 hours): active; ME (maximum effect) in RoK assay (in words) [2]: high values in ME at the different times; tlag (in words) [2]: short tlag; MCC50 ([2]; RoK curve descriptor): 27.8 µM; t50%_Cmax [2]: 24.0 h; t50%_MCC50 ([2]; at MCC50): 48.0 h; tlag_MCC50 ([2]; at MCC50): 4.0 h; MCC50 ([2]; figure 5, in µM): 27.7778; CYP51 pIC50 [3]: 4.5
O=C(O)C(F)(F)F.O=c1oc2ccccc2n1C1CCN(Cc2ccccc2-c2cccnc2)CC1 [TCMDC-143389] | < 4.3 | < 4.3 | -205.37 | -40.6003 | 54.0373 | 0.2 µM | -7.014 | -205.37 | -40.6003 | 17.0901 | 24.0 h | 72 | 24 | 72 | 24 | 0.2058 | -205.4% | -40.6% | 54.0% | -205.37% | 72 pIC50 (trypomastigotes, raw data of Fig 1D) [1]: < 4.3; 48 pIC50 ([1]; figure 1A): < 4.3; 72 pIC50 ([1]; figure 1A): < 4.3; 72 pIC50 ([1]; figure 1B): < 4.3; MCC50 ([2]; RoK curve descriptor): 5.6 µM; t50%_MCC50 ([2]; at MCC50): 72.0 h; tlag_MCC50 ([2]; at MCC50): 24.0 h; MCC50 ([2]; figure 5, in µM): 5.556; CYP51 pIC50 [3]: 7
O=C(CN(c1cccc(C(F)(F)F)c1)S(=O)(=O)c1ccc(Cl)cc1)NCc1ccc(F)c(F)c1 [TCMDC-143548] | 5 | 4.9 | -13.6646 | 17.5808 | 36.7488 | 0.6 µM | 27.6101 | -54.8458 | -14.5763 | 13.9259 | 24.0 h | 72 | 24 | 72 | 72 | 0.6173 | -13.7% | 17.6% | 36.8% | -13.6646% | MCC50 ([2]; figure 5): 50 µM; CYP51 pIC50 [3]: 6.8
CC(C)(C)C(Cn1ccnc1)NC(=O)c1ccc2nc(C3CC3)oc2c1 (stereo not drawn) [TCMDC-143336] | 5 | < 4.3 | -64.3403 | -179.917 | -53.9696 | 0.2 µM | 3.062 | -93.0977 | -442.656 | -139.753 | 48.0 h | 72 | 48 | 72 | 72 | 0.2058 | -64.3% | -179.9% | -54.0% | -64.3403% | MCC50 ([2]; figure 5): 50 µM; CYP51 pIC50 [3]: 7
